Activity calls are given as the source filed them. The rule behind the calls is not given here.
Columns and labels:
[1] = molecular target: T1, Neuromedin-K receptor (Homo sapiens) (UniProt P29371); experiment: Inhibition of human recombinant NK3 receptor at 10 uM by radioligand binding assay
T1 sequence (whole entry): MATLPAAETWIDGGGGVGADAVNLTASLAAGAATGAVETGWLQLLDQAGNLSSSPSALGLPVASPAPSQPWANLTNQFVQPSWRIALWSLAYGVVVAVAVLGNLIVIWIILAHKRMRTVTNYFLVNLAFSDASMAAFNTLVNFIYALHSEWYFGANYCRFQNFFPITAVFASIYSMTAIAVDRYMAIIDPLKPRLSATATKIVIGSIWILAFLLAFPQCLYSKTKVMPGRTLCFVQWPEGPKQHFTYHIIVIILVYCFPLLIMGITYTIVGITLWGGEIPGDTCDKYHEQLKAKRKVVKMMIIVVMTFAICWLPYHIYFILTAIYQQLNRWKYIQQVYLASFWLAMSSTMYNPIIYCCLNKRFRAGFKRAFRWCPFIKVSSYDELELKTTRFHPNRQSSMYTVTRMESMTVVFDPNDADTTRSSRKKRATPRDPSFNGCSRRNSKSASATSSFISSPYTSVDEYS

[2] = molecular target: Histamine H2 receptor (Homo sapiens) (UniProt P25021); experiment: Inhibition of human recombinant H2 receptor at 10 uM by radioligand binding assay
Sequence of Histamine H2 receptor (Homo sapiens) (P25021 whole entry): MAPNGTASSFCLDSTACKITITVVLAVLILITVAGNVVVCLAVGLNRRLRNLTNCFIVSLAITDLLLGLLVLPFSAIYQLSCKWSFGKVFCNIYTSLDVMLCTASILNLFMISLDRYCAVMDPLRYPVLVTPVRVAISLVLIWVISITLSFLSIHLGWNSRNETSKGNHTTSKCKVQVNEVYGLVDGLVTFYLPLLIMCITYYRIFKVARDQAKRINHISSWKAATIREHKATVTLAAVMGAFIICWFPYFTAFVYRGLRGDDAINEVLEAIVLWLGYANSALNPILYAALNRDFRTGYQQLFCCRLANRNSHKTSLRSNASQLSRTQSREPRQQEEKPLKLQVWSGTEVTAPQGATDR

[3] = molecular target: Melanocortin receptor 4 (Homo sapiens) (UniProt P32245); experiment: Inhibition of human recombinant MC4 receptor at 10 uM by radioligand binding assay
Sequence of Melanocortin receptor 4 (Homo sapiens) (P32245 whole entry): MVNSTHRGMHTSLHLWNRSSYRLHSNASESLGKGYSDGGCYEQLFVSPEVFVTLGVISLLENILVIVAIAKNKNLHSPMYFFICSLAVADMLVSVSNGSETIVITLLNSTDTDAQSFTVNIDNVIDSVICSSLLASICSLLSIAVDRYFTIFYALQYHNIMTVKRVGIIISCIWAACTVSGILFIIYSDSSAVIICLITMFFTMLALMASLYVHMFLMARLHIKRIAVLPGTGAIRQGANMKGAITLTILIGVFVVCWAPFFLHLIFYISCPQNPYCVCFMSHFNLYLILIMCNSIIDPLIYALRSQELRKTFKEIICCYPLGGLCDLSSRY

Homo sapiens [4] = organism: Homo sapiens; experiment: Inhibition of human recombinant GABA receptor at 10 uM by radioligand binding assay
[5] = molecular target: Beta-2 adrenergic receptor (Homo sapiens) (UniProt P07550); experiment: Inhibition of human recombinant beta2 receptor at 10 uM by radioligand binding assay
Sequence of Beta-2 adrenergic receptor (Homo sapiens) (P07550 whole entry, looked up): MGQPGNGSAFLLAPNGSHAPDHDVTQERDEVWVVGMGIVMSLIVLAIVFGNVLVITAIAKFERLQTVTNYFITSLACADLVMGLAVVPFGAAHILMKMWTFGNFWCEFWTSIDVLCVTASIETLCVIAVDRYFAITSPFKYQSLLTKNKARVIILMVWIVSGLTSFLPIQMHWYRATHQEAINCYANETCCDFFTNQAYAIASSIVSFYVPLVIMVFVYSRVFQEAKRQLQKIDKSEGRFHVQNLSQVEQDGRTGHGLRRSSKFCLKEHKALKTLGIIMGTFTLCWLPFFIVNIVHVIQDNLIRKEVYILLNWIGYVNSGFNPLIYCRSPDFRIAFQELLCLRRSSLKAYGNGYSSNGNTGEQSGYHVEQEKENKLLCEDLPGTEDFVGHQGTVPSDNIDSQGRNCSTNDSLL

[6] = molecular target: Vasopressin V1a receptor (Homo sapiens) (UniProt P37288); experiment: Inhibition of human recombinant V1a receptor at 10 uM by radioligand binding assay
Sequence of Vasopressin V1a receptor (Homo sapiens) (P37288 whole entry, looked up): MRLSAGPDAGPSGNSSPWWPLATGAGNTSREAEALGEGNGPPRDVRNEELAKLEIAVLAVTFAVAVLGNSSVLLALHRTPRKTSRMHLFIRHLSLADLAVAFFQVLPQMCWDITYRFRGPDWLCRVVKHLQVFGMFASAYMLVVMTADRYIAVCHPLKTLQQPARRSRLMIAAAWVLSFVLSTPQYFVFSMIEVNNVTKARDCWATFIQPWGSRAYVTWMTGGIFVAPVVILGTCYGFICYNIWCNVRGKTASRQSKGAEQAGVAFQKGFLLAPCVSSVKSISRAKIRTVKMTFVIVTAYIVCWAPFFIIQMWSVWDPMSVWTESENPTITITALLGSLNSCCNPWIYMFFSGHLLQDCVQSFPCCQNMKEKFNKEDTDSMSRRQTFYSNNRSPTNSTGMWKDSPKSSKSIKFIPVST

[7] = molecular target: 5-hydroxytryptamine receptor 7 (Homo sapiens) (UniProt P34969); experiment: Inhibition of human recombinant 5HT7 receptor at 10 uM by radioligand binding assay
Sequence of 5-hydroxytryptamine receptor 7 (Homo sapiens) (P34969 whole entry): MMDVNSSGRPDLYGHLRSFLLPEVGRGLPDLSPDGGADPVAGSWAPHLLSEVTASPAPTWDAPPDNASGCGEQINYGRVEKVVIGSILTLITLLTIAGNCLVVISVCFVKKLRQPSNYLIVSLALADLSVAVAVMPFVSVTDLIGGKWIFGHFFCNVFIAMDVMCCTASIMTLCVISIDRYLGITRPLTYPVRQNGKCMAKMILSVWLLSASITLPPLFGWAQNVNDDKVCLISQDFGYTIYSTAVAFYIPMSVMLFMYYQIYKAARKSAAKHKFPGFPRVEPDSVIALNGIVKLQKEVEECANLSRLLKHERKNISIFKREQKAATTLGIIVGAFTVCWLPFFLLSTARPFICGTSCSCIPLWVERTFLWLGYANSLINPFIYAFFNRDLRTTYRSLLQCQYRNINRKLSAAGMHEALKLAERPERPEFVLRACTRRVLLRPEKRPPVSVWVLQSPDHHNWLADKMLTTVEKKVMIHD

[8] = molecular target: Sodium-dependent noradrenaline transporter (Homo sapiens) (UniProt P23975); experiment: Inhibition of human recombinant NET at 10 uM by radioligand binding assay
Sequence of Sodium-dependent noradrenaline transporter (Homo sapiens) (P23975 whole entry): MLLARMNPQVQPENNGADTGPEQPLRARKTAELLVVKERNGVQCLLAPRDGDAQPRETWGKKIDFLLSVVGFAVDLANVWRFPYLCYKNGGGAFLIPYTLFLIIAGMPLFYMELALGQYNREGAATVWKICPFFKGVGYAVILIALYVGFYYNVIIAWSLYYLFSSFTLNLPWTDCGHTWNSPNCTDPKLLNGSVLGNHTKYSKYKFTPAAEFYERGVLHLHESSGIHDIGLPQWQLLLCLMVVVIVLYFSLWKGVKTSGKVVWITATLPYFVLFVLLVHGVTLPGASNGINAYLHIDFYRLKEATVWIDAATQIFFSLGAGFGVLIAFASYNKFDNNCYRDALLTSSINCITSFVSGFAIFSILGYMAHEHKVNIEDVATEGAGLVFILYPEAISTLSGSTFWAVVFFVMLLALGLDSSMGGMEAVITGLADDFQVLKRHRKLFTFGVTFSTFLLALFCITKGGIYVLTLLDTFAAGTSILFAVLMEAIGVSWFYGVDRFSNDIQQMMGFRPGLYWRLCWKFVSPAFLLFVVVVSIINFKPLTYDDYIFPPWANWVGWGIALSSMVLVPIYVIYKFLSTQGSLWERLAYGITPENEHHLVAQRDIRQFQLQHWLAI

Homo sapiens [9] = organism: Homo sapiens; experiment: Inhibition of human recombinant sst receptor at 10 uM by radioligand binding assay
[10] = molecular target: T2, Adenosine receptor A1 (Homo sapiens) (UniProt P30542); experiment: Inhibition of human recombinant A1 receptor at 10 uM by radioligand binding assay
T2 sequence (whole entry): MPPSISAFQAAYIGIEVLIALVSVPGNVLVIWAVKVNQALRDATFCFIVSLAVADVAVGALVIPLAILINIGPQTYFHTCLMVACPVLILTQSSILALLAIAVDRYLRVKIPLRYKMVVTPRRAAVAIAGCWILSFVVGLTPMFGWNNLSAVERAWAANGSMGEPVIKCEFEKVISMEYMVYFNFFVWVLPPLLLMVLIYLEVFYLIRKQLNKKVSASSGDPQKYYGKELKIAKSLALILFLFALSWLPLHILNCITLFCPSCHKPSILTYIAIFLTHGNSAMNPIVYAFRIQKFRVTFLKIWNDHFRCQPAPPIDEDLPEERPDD

[11] = system: Neuropeptide Y receptor type 1; experiment: Inhibition of human recombinant Y1 receptor at 10 uM by radioligand binding assay
[12] = molecular target: Muscarinic acetylcholine receptor M3 (Homo sapiens) (UniProt P20309); experiment: Inhibition of human recombinant M3 receptor at 10 uM by radioligand binding assay
Sequence of Muscarinic acetylcholine receptor M3 (Homo sapiens) (P20309 whole entry, looked up): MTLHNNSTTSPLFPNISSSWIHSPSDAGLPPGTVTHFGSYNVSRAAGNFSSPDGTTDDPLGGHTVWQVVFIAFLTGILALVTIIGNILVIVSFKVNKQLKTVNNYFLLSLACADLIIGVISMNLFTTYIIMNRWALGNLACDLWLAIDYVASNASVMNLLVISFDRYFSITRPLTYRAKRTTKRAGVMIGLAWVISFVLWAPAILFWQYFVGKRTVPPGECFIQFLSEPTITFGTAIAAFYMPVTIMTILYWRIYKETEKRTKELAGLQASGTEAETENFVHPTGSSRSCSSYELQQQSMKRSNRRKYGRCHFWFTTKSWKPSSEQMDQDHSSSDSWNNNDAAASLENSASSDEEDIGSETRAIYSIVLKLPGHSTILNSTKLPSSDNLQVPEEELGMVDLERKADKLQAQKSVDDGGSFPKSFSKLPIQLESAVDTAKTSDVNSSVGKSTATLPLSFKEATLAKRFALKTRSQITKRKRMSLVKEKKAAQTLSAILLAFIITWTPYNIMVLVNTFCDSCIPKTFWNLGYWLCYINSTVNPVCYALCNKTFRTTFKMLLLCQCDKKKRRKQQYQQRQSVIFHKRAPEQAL

[13] = Inhibition of GSNOR expressed in Escherichia coli using GSNO by cuvette method
A549 = experiment: Cytotoxicity against human A549 cells; format: functional, cell-based

SMILES | inhibition [1] | inhibition [2] | inhibition [3] | inhibition (Homo sapiens [4]) | inhibition [5] | inhibition [6] | inhibition [7] | inhibition [8] | inhibition (Homo sapiens [9]) | inhibition [10] | inhibition [11] | inhibition [12] | IC50 [13] [nM] | IC50 (A549) [nM]
Cc1cc(C(N)=O)ccc1-c1c(-c2ccc(-n3ccnc3)cc2)ccn1CCC(=O)O | inactive | inactive | inactive | inactive | inactive | inactive | inactive | inactive | inactive | inactive | inactive | inactive |  | 
COc1ccc(-c2ccn(-c3ccc(C(=O)O)c(O)c3)c2-c2ccc(C(N)=O)cc2C)cc1 | Active | Active | Active | Active | Active | Active | Active | Active | Active | Active | Active | Active | 280 | 
Cc1cc(C(N)=O)ccc1-c1c(CCC(=O)O)ccn1-c1ccc(-n2ccnc2)cc1 | inactive | inactive | inactive | inactive | inactive | inactive | inactive | inactive | inactive | inactive | inactive | inactive |  | > 250000

Further lines, with some results ahead:

inhibition [1] | inhibition [2] | inhibition [3] | inhibition (Homo sapiens [4]) | inhibition [5] | inhibition [6] | inhibition [7] | inhibition [8] | inhibition (Homo sapiens [9]) | inhibition [10] | inhibition [11] | inhibition [12] | IC50 [13] [nM] | SMILES | IC50 (A549) [nM]
inactive | inactive | inactive | inactive | inactive | inactive | inactive | inactive | inactive | inactive |  | inactive | 20 | Cc1cc(C(N)=O)ccc1-n1c(CCC(=O)O)ccc1-c1ccc(-n2ccnc2)cc1 [N6022] | 
Active | Active | Active | Active | Active | Active | Active | Active | Active | Active | Active | Active | 190 | COc1ccc(-c2ccn(-c3ccc(O)c([N+](=O)[O-])c3)c2-c2ccc(C(N)=O)cc2C)cc1 | 
